Source: publication PMC11596928, “Substrate-Induced Structural Dynamics and Evolutionary Linkage of Siderophore-Iron ABC Transporters of Mycobacterium tuberculosis” (Medicina, 2024)

Molecular target: ATPase II (rATPase II), ATPase domain of IrtB (Mycobacterium tuberculosis, UniProt P9WQJ7)
Sequence (P9WQJ7 313-579): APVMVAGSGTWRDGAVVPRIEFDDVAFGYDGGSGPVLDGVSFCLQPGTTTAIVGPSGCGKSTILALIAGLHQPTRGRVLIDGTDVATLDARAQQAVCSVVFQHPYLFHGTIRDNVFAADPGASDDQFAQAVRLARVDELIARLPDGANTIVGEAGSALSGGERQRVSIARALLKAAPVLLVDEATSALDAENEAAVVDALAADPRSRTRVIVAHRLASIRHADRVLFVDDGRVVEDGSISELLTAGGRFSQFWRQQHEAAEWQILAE

For Nc1ncnc2c1ncn2[C@@H]1O[C@H](COP(=O)(O)OP(=O)(O)OP(=O)(O)O)[C@@H](O)[C@H]1O [ATP], the “analytical gel filtration (ATP-dependent dimerization)” value was “ATPase II (the ATPase belonging to IrtB) dimers were captured as stable dimers”.
